Target: T1, Human BCL-XL protein (N-terminal HiBiT tagged BCL-XL expressed in HT1080 cells) (Homo sapiens, UniProt Q07817)
T1 construct: expressed in transfected cells; host or cells: HT-1080 (ATCC CCL-121), stably transduced with lentivirus pLV-UBC-N-HiBiT-BCL-XL-PGK-puro and selected with puromycin
Test: HiBiT Based Degradation Assay
Format: cell-based
Settings: 24 hours incubation; for DC50: BCL-XL degradation, HT1080 cells expressing N-HiBiT-BCL-XL, normalized with DMSO control, geometric mean for multiple data points, read-out: EC50 (24 h); for Ymin (24 h): bottom of BCL-XL degradation curve (remaining HiBiT-BCL-XL signal vs DMSO control), HT1080 cells
How it was run: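 BCL-XL degradation was read as Nano-Glo HiBiT lytic luminescence relative to DMSO after a 24 h compound treatment of HT1080 cells carrying stably integrated N-HiBiT-BCL-XL. EC50 values come from four-parameter logistic curves, with the hook-curve minimum fixed as bottom, and are geometric means where tested repeatedly.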

T1 sequence (Q07817 whole entry): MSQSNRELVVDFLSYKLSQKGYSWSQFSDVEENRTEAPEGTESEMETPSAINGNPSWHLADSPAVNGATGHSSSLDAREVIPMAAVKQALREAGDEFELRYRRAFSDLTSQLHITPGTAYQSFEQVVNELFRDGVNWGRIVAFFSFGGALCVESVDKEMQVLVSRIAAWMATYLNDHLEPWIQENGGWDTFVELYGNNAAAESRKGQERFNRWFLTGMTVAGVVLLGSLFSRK

DC50	Ymin (24 h)	SMILES
10 to 100 nM	B (30% ≤ Ymin < 50%)	Cn1nc(C2CCC(=O)NC2=O)c2ccc(NC(=O)CN3CCC4(CC3)CC(COc3ccc(-c5ccc(N6CCc7cccc(C(=O)Nc8nc9ccccc9s8)c7C6)nc5C(=O)O)c(C(F)(F)F)c3)C4)nc21 (stereo not shown) [Compound 148]
10 to 100 nM	A (Ymin < 30%)	Cc1cc(O[C@H](C)CCC2CCN(CC(=O)Nc3ccc4c(C5CCC(=O)NC5=O)nn(C)c4c3F)CC2)ccc1-c1ccc(N2CCc3cccc(C(=O)Nc4nc5ccccc5s4)c3C2)nc1C(=O)O (single isomer, unassigned) [Compound 224b]
< 10 nM	B (30% ≤ Ymin < 50%)	COc1c(NC(=O)CN2CCC3(CC2)CC(Oc2cccc(-c4ccc(N5CCc6ccnc(C(=O)Nc7nc8ccccc8s7)c6C5)nc4C(=O)O)c2C(F)(F)F)C3)ccc2c(C3CCC(=O)NC3=O)nn(C)c12 (stereo not shown) [Compound 165, 6-(8-(benzo[d]thiazol-2-ylcarbamoyl)-3,4-dihydro-2,7-naphthyridin-2(1H)-yl)-3-(3-((7-(2-((3-(2,6-dioxopiperidin-3-yl)-7-methoxy-1-methyl-1H-indazol-6-yl)amino)-2-oxoethyl)-7-azaspiro[3.5]nonan-2-yl)oxy)-2-(trifluoromethyl)phenyl)picolinic acid]
< 10 nM	B (30% ≤ Ymin < 50%)	Cc1c(OCCCC2CCN(CCOc3ccc4c(C5CCC(=O)NC5=O)nn(C)c4c3)CC2)cccc1-c1ccc(N2CCc3cccc(C(=O)Nc4nc5ccccc5s4)c3C2)nc1C(=O)O (stereo not shown) [Compound 156]
< 10 nM	B (30% ≤ Ymin < 50%)	Cc1cc(OC[C@H]2C[C@@H]2CC2CCN(CC(=O)Nc3ccc4c(C5CCC(=O)NC5=O)nn(C)c4c3)CC2)ccc1-c1ccc(N2CCc3cccc(C(=O)Nc4nc5ccccc5s4)c3C2)nc1C(=O)O (single isomer, unassigned) [Compound 1002a]
10 to 100 nM	A (Ymin < 30%)	COc1c(NC(=O)CN2CC[C@@H](CCCOc3ccc(-c4ccc(N5CCc6cccc(C(=O)Nc7nc8ccccc8s7)c6C5)nc4C(=O)O)c(C)c3)C[C@H]2C)ccc2c(C3CCC(=O)NC3=O)nn(C)c12 (stereo partly shown) [Compound 210d]
< 10 nM	A (Ymin < 30%)	Cc1cc(OC[C@H]2C[C@@H]2C2CCN(CC(=O)Nc3ccc4c(C5CCC(=O)NC5=O)nn(C)c4c3)CC2)ccc1-c1ccc(N2CCc3cccc(C(=O)Nc4nc5ccccc5s4)c3C2)nc1C(=O)O (relative stereo) [Compound 1003a, 6-(8-(benzo[d]thiazol-2-ylcarbamoyl)-3,4-dihydroisoquinolin-2(1H)-yl)-3-(4-(((1S,2R)-2-(1-(2-((3-(2,6-dioxopiperidin-3-yl)-1-methyl-1H-indazol-6-yl)amino)-2-oxoethyl)piperidin-4-yl)cyclopropyl)methoxy)-2-methylphenyl)picolinic acid]
10 to 100 nM	B (30% ≤ Ymin < 50%)	Cc1cc(OCC2CC3(CCN(CC(=O)Nc4ccc5c(C6CCC(=O)NC6=O)nn(C)c5c4C(F)(F)F)CC3)C2)ccc1-c1ccc(N2CCc3cccc(C(=O)Nc4nc5ccccc5s4)c3C2)nc1C(=O)O (stereo not shown) [Compound 136]
< 10 nM	A (Ymin < 30%)	Cc1cc(OCCCC2(O)CCN(CC(=O)Nc3ccc4c(C5CCC(=O)NC5=O)nn(C)c4c3)CC2)ccc1-c1ccc(N2CCc3cccc(C(=O)Nc4nc5ccccc5s4)c3C2)nc1C(=O)O (stereo not shown) [Compound 107, 6-(8-(benzo[d]thiazol-2-ylcarbamoyl)-3,4-dihydroisoquinolin-2(1H)-yl)-3-(4-(3-(1-(2-((3-(2,6-dioxopiperidin-3-yl)-1-methyl-1H-indazol-6-yl)amino)-2-oxoethyl)-4-hydroxypiperidin-4-yl)propoxy)-2-methylphenyl)picolinic acid]
< 10 nM	B (30% ≤ Ymin < 50%)	Cn1nc(C2CCC(=O)NC2=O)c2ccc(NC(=O)CN3CCC4(CCC(Oc5ccc(-c6ccc(N7CCc8cccc(C(=O)Nc9nc%10ccccc%10s9)c8C7)nc6C(=O)O)c(C(F)(F)F)c5)CC4)CC3)cc21 (stereo not shown) [Compound 197]
< 10 nM	B (30% ≤ Ymin < 50%)	Cc1cc(OC[C@H]2C[C@H]2CC2CCN(CC(=O)Nc3ccc4c(C5CCC(=O)NC5=O)nn(C)c4c3)CC2)ccc1-c1ccc(N2CCc3cccc(C(=O)Nc4nc5ccccc5s4)c3C2)nc1C(=O)O (single isomer, unassigned) [Compound 1002b]
10 to 100 nM	B (30% ≤ Ymin < 50%)	COc1c(NC(=O)CN2CCC3(CC2)CC(Oc2cccc(-c4ccc(N5CCc6cccc(C(=O)Nc7nc8ccccc8s7)c6C5)nc4C(=O)O)c2C)C3)ccc2c(C3CCC(=O)NC3=O)nn(C)c12 (stereo not shown) [Compound 164, 6-(8-(benzo[d]thiazol-2-ylcarbamoyl)-3,4-dihydroisoquinolin-2(1H)-yl)-3-(3-((7-(2-((3-(2,6-dioxopiperidin-3-yl)-7-methoxy-1-methyl-1H-indazol-6-yl)amino)-2-oxoethyl)-7-azaspiro[3.5]nonan-2-yl)oxy)-2-methylphenyl)picolinic acid]
10 to 100 nM	B (30% ≤ Ymin < 50%)	COc1c(NC(=O)CN2CCC3(CC2)CC(Oc2ccc(-c4ccc(N5CCc6cccc(C(=O)Nc7nc8ccccc8s7)c6C5)nc4C(=O)O)c(C(F)(F)F)c2)C3)ccc2c(C3CCC(=O)NC3=O)nn(C)c12 (stereo not shown) [Compound 172, 6-(8-(benzo[d]thiazol-2-ylcarbamoyl)-3,4-dihydroisoquinolin-2(1H)-yl)-3-(4-((7-(2-((3-(2,6-dioxopiperidin-3-yl)-7-methoxy-1-methyl-1H-indazol-6-yl)amino)-2-oxoethyl)-7-azaspiro[3.5]nonan-2-yl)oxy)-2-(trifluoromethyl)phenyl)picolinic acid]
< 10 nM	B (30% ≤ Ymin < 50%)	Cn1nc(C2CCC(=O)NC2=O)c2ccc(NC(=O)CN3CCC(CCCOc4ccc(-c5ccc(N6CCc7cccc(C(=O)Nc8nc9ccccc9s8)c7C6)nc5C(=O)O)c(C(F)(F)F)c4)CC3)cc21 (stereo not shown) [Compound 129, 6-(8-(benzo[d]thiazol-2-ylcarbamoyl)-3,4-dihydroisoquinolin-2(1H)-yl)-3-(4-(3-(1-(2-((3-(2,6-dioxopiperidin-3-yl)-1-methyl-1H-indazol-6-yl)amino)-2-oxoethyl)piperidin-4-yl)propoxy)-2-(trifluoromethyl)phenyl)picolinic acid]
10 to 100 nM	B (30% ≤ Ymin < 50%)	COc1c(NC(=O)CN2CC[C@H](CCCOc3cccc(-c4ccc(N5CCc6cccc(C(=O)Nc7nc8ccccc8s7)c6C5)nc4C(=O)O)c3C)C[C@@H]2C)ccc2c(C3CCC(=O)NC3=O)nn(C)c12 (stereo partly shown) [Compound 208b]
< 10 nM	A (Ymin < 30%)	Cc1cc(N(C)CCCC2CCN(CC(=O)Nc3ccc4c(C5CCC(=O)NC5=O)nn(C)c4c3)CC2)ccc1-c1ccc(N2CCc3cccc(C(=O)Nc4nc5ccccc5s4)c3C2)nc1C(=O)O (stereo not shown) [Compound 222, 6-(8-(benzo[d]thiazol-2-ylcarbamoyl)-3,4-dihydroisoquinolin-2(1H)-yl)-3-(4-((3-(1-(2-((3-(2,6-dioxopiperidin-3-yl)-1-methyl-1H-indazol-6-yl)amino)-2-oxoethyl)piperidin-4-yl)propyl)(methyl)amino)-2-methylphenyl)picolinic acid]

SMILES	DC50	Ymin (24 h)
Cc1c(OCCC[C@@H]2C[C@H]3CC[C@@H](C2)N3CC(=O)Nc2ccc3c(C4CCC(=O)NC4=O)nn(C)c3c2)cccc1-c1ccc(N2CCc3cccc(C(=O)Nc4nc5ccccc5s4)c3C2)nc1C(=O)O (stereo partly shown) [Compound 175a]	< 10 nM	B (30% ≤ Ymin < 50%)

Source: patent US20260216170A1, “TETRAHYDROISOQUINOLINE HETEROBIFUNCTIONAL BCL-XL DEGRADERS” (Treeline Biosciences, Inc., priority 2023, published 2026)
